Legend:
M2 mAChR WT = target: T1, M2 mAChR WT (Homo sapiens, UniProt P08172); test: [3H]-NMS radioligand dissociation binding, M2 mAChR WT
T1 construct: expressed in transfected cells
T1 sequence (P08172 1-466): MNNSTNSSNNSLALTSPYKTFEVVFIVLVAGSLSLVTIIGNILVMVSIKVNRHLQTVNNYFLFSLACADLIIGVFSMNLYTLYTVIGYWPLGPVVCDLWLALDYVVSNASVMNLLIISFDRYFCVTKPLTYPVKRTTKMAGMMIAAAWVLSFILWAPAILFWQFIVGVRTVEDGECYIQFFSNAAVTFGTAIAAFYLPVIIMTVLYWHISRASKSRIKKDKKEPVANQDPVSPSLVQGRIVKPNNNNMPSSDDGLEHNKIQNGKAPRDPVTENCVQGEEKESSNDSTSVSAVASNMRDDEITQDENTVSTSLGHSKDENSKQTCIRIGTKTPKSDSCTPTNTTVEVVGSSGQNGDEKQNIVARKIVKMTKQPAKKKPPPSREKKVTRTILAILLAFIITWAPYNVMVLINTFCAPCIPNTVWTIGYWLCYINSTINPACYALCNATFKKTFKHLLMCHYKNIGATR
Method: (§1) Flp-In Chinese hamster ovary (CHO) (Thermo Fisher Scientific) cells stably expressing mAChR WTs or mutant constructs were cultured in Dulbecco’s modified Eagle’s medium (DMEM, Invitrogen) containing 5% foetal bovine serum (FBS; ThermoTrace) and […] of hygromycin (Roche) in a humidified incubator (37 °C, 5% CO2). Upon reaching confluence, media was removed, cells were washed with phosphate buffered saline (PBS) and harvested from tissue culture flasks using versene (PBS with 0.2 g EDTA). Cells were then pelleted through centrifugation at 350 × g for three minutes followed by resuspension in DMEM + 5% FBS. Cells were then either plated for an assay or reseeded into a tissue culture flask.

M3 mAChR WT = target: T2, M3 mAChR WT (Homo sapiens, UniProt P20309); test: [3H]-NMS radioligand dissociation binding, M3 mAChR WT
T2 construct: expressed in transfected cells
T2 sequence (P20309 whole entry): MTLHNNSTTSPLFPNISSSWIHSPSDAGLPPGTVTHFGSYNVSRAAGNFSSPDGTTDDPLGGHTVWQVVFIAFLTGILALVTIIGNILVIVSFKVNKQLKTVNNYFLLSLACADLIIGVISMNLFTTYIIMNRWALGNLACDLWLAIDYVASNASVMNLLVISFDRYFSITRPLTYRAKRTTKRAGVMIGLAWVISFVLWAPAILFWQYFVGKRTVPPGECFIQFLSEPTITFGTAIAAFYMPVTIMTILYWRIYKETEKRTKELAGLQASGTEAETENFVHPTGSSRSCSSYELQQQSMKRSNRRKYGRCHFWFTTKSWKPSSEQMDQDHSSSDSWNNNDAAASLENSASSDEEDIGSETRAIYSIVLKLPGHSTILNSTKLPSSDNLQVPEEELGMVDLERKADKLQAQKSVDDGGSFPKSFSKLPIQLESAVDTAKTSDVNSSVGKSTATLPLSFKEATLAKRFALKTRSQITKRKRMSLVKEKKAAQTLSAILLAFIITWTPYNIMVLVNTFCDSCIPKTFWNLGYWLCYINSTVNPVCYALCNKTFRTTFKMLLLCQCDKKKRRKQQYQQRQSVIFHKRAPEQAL
Method: as §1

M4 mAChR WT = target: T3, M4 mAChR WT (Homo sapiens, UniProt P08173); test: [3H]-NMS radioligand dissociation binding, M4 mAChR WT; details: for [3H]-NMS binding remaining (0 min = 100), MEAN: M4 mAChR
T3 construct: expressed in transfected cells
T3 sequence (P08173 1-479): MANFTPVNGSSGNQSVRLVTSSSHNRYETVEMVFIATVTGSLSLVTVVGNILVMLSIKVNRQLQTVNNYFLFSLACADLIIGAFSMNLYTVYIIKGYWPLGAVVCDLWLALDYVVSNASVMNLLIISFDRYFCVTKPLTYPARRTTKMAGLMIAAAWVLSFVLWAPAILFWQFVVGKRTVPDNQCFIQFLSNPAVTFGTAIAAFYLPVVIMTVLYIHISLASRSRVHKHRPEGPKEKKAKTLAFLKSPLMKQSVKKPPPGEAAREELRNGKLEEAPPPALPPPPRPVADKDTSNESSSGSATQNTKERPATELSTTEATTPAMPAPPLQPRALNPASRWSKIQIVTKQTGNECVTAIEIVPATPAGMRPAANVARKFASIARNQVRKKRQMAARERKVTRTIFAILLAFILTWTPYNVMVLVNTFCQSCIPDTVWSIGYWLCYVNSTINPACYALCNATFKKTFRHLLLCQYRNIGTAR
Method: as §1

M5 mAChR WT = target: T4, M5 mAChR WT (Homo sapiens, UniProt P08912); test: [3H]-NMS radioligand dissociation binding, M5 mAChR WT
T4 construct: expressed in transfected cells
T4 sequence (P08912 1-532): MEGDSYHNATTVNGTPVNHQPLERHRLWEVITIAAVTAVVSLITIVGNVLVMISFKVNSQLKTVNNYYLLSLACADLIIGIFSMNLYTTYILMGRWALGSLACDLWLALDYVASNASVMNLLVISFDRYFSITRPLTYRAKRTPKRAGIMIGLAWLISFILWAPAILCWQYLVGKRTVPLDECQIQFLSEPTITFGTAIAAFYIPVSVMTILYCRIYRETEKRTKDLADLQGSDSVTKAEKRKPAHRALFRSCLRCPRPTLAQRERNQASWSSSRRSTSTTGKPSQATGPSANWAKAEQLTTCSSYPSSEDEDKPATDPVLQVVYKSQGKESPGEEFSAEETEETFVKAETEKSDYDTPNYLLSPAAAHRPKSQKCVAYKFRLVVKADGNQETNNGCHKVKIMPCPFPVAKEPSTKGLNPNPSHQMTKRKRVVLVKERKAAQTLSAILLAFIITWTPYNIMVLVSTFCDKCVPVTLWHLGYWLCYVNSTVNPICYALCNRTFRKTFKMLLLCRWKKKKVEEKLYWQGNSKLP
Method: as §1

For `CCCCCCOc1nsnc1C1=CCCN(C)C1` [xanomeline], the “allosteric effect on [3H]-NMS dissociation (in words)” value (shortened to “allosteric effect”) (M2 mAChR WT) was “more pronounced”, the IC50 (M3 mAChR WT) was 182 µM and the “allosteric effect” value (M3 mAChR WT; M3 mAChR) was “modest”. For the same compound, the “[3H]-NMS binding remaining (0 min = 100), MEAN” value (shortened to “[3H]-NMS binding remaining”) (M3 mAChR WT; M3 mAChR, 10uM Atr + 10 μM Xano, 10 min) was 102.824, the “[3H]-NMS binding remaining” value (M3 mAChR WT; M3 mAChR, 10uM Atr + 10 μM Xano, 15 min) was 94.4472 and the “[3H]-NMS binding remaining” value (M3 mAChR WT; M3 mAChR, 10uM Atr + 10 μM Xano, 30 min) was 84.3079. The “[3H]-NMS binding remaining” value (M3 mAChR WT; M3 mAChR, 10uM Atr + 10 μM Xano, 90 min) was 53.078, the “[3H]-NMS binding remaining” value (M3 mAChR WT; M3 mAChR, 10uM Atr + 10 μM Xano, 120 min) was 40.5004 and the “[3H]-NMS binding remaining” value (M3 mAChR WT; M3 mAChR, 10uM Atr + 10 μM Xano, 210 min) was 20.6349. For the same compound, the “[3H]-NMS binding remaining” value (M3 mAChR WT; M3 mAChR, 10uM Atr + 30 μM Xano, 10 min) was 103.273, the “[3H]-NMS binding remaining” value (M3 mAChR WT; M3 mAChR, 10uM Atr + 30 μM Xano, 15 min) was 95.5713 and the “[3H]-NMS binding remaining” value (M3 mAChR WT; M3 mAChR, 10uM Atr + 30 μM Xano, 30 min) was 87.9383. For the same compound, the “[3H]-NMS binding remaining” value (M3 mAChR WT; M3 mAChR, 10uM Atr + 30 μM Xano, 90 min) was 53.4947, the “[3H]-NMS binding remaining” value (M3 mAChR WT; M3 mAChR, 10uM Atr + 30 μM Xano, 120 min) was 41.606 and the “[3H]-NMS binding remaining” value (M3 mAChR WT; M3 mAChR, 10uM Atr + 30 μM Xano, 210 min) was 24.8398. The “[3H]-NMS binding remaining” value (M3 mAChR WT; M3 mAChR, 10uM Atr + 100uM Xano, 10 min) was 100.762, the “[3H]-NMS binding remaining” value (M3 mAChR WT; M3 mAChR, 10uM Atr + 100uM Xano, 15 min) was 94.0238 and the “[3H]-NMS binding remaining” value (M3 mAChR WT; M3 mAChR, 10uM Atr + 100uM Xano, 30 min) was 90.7523. For the same compound, the “[3H]-NMS binding remaining” value (M3 mAChR WT; M3 mAChR, 10uM Atr + 100uM Xano, 90 min) was 62.8848, the “[3H]-NMS binding remaining” value (M3 mAChR WT; M3 mAChR, 10uM Atr + 100uM Xano, 120 min) was 45.8052 and the “[3H]-NMS binding remaining” value (M3 mAChR WT; M3 mAChR, 10uM Atr + 100uM Xano, 210 min) was 29.7551. The “[3H]-NMS binding remaining” value (M4 mAChR WT; 10uM Atr + 10 μM Xano, 30 min) was 87.1248, the “[3H]-NMS binding remaining” value (M4 mAChR WT; 10uM Atr + 10 μM Xano, 90 min) was 63.7927 and the “[3H]-NMS binding remaining” value (M4 mAChR WT; 10uM Atr + 10 μM Xano, 180 min) was 32.9493. For the same compound, the “[3H]-NMS binding remaining” value (M4 mAChR WT; 10uM Atr + 10 μM Xano, 300 min) was 16.1247, the “[3H]-NMS binding remaining” value (M4 mAChR WT; 10uM Atr + 30 μM Xano, 30 min) was 96.6093 and the “[3H]-NMS binding remaining” value (M4 mAChR WT; 10uM Atr + 30 μM Xano, 90 min) was 68.5782. For the same compound, the “[3H]-NMS binding remaining” value (M4 mAChR WT; 10uM Atr + 30 μM Xano, 180 min) was 42.1853, the “[3H]-NMS binding remaining” value (M4 mAChR WT; 10uM Atr + 30 μM Xano, 300 min) was 23.6351 and the “[3H]-NMS binding remaining” value (M4 mAChR WT; 10uM Atr + 100uM Xano, 30 min) was 97.9496. For the same compound, the “[3H]-NMS binding remaining” value (M4 mAChR WT; 10uM Atr + 100uM Xano, 60 min) was 79.6399, the “[3H]-NMS binding remaining” value (M4 mAChR WT; 10uM Atr + 100uM Xano, 180 min) was 54.7449 and the “[3H]-NMS binding remaining” value (M4 mAChR WT; 10uM Atr + 100uM Xano, 300 min) was 34.2485. For the same compound, the “effect on [3H]-NMS dissociation (in words)” value (M4 mAChR WT; wild-type M4 mAChR, increasing concentrations of xanomeline, saturating concentration of iperoxo) was “progressively slowed”, the “allosteric effect” value (M5 mAChR WT) was “modest” and the “[3H]-NMS binding remaining” value (M5 mAChR WT; 10uM Atr + 10 μM Xano, 10 min) was 90.3151. For the same compound, the “[3H]-NMS binding remaining” value (M5 mAChR WT; 10uM Atr + 10 μM Xano, 15 min) was 91.7238, the “[3H]-NMS binding remaining” value (M5 mAChR WT; 10uM Atr + 10 μM Xano, 30 min) was 85.9775 and the “[3H]-NMS binding remaining” value (M5 mAChR WT; 10uM Atr + 10 μM Xano, 90 min) was 67.8458. For the same compound, the “[3H]-NMS binding remaining” value (M5 mAChR WT; 10uM Atr + 10 μM Xano, 120 min) was 51.752, the “[3H]-NMS binding remaining” value (M5 mAChR WT; 10uM Atr + 10 μM Xano, 210 min) was 35.86 and the “[3H]-NMS binding remaining” value (M5 mAChR WT; 10uM Atr + 30 μM Xano, 10 min) was 92.3387. The “[3H]-NMS binding remaining” value (M5 mAChR WT; 10uM Atr + 30 μM Xano, 15 min) was 85.7238, the “[3H]-NMS binding remaining” value (M5 mAChR WT; 10uM Atr + 30 μM Xano, 30 min) was 100.331 and the “[3H]-NMS binding remaining” value (M5 mAChR WT; 10uM Atr + 30 μM Xano, 90 min) was 61.0136. The “[3H]-NMS binding remaining” value (M5 mAChR WT; 10uM Atr + 30 μM Xano, 120 min) was 51.9105, the “[3H]-NMS binding remaining” value (M5 mAChR WT; 10uM Atr + 30 μM Xano, 210 min) was 31.039 and the “[3H]-NMS binding remaining” value (M5 mAChR WT; 10uM Atr + 100uM Xano, 10 min) was 94.3264. For the same compound, the “[3H]-NMS binding remaining” value (M5 mAChR WT; 10uM Atr + 100uM Xano, 15 min) was 90.317, the “[3H]-NMS binding remaining” value (M5 mAChR WT; 10uM Atr + 100uM Xano, 30 min) was 106.159 and the “[3H]-NMS binding remaining” value (M5 mAChR WT; 10uM Atr + 100uM Xano, 90 min) was 76.4682. For the same compound, the “[3H]-NMS binding remaining” value (M5 mAChR WT; 10uM Atr + 100uM Xano, 120 min) was 67.0445 and the “[3H]-NMS binding remaining” value (M5 mAChR WT; 10uM Atr + 100uM Xano, 210 min) was 42.1563.

Source: paper PMC10482975 (Nature Communications, 2023)
